Measurements published in PubChem BioAssay (NCI).
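Growth conditions: 96-well plates. Treatment: test compound, 48 hours, 5 concentrations. Analysis: linear interpolation between bracketing concentrations; unreached endpoints set to highest concentration. The concentration for 50% growth inhibition is given as GI50. TGI marks complete inhibition of growth.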

What was measured:
Assay in all cases: NCI tumour cell line growth inhibition, 48 h
[1] = tested on: 786-0 renal
[2] = tested on: A498 renal
[3] = tested on: A549 NSCLC
[4] = tested on: ACHN renal
[5] = tested on: BT-549 breast
[6] = tested on: CCRF-CEM leukemia
[7] = tested on: DU-145 prostate
[8] = tested on: EKVX NSCLC
[9] = tested on: HCC-2998 colon
[10] = tested on: HCT-116 colon
[11] = tested on: HCT-15 colon
[12] = tested on: HL-60(TB) leukemia
[13] = tested on: HOP-62 NSCLC
[14] = tested on: HOP-92 NSCLC
[15] = tested on: HS 578T breast
[16] = tested on: HT29 colon
[17] = tested on: IGROV1 ovarian
[18] = tested on: K-562 leukemia
[19] = tested on: KM12 colon
[20] = tested on: LOX IMVI melanoma
[21] = tested on: M14 melanoma
[22] = tested on: MALME-3M melanoma
[23] = tested on: MCF7 breast
[24] = tested on: MDA-MB-231 breast
[25] = tested on: MDA-MB-435
[26] = tested on: NCI-H226 lung
[27] = tested on: NCI-H23 lung
[28] = tested on: NCI-H460 lung
[29] = tested on: NCI-H522 lung
[30] = tested on: NCI/ADR-RES ovarian
[31] = tested on: OVCAR-3 ovarian
[32] = tested on: OVCAR-4 ovarian
[33] = tested on: OVCAR-5 ovarian
[34] = tested on: OVCAR-8 ovarian
[35] = tested on: PC-3 prostate
[36] = tested on: RPMI-8226 leukemia
[37] = tested on: RXF 393 renal
[38] = tested on: SF-268 CNS
[39] = tested on: SF-295 CNS
[40] = tested on: SF-539 CNS
[41] = tested on: SK-MEL-5 melanoma
[42] = tested on: SK-OV-3 ovarian
[43] = tested on: SN12C renal
[44] = tested on: SNB-19 CNS
[45] = tested on: SNB-75 CNS
[46] = tested on: SR leukemia
[47] = tested on: T-47D breast
[48] = tested on: TK-10 renal
[49] = tested on: U251 CNS
[50] = tested on: UACC-257 melanoma
[51] = tested on: UACC-62 melanoma
[52] = tested on: UO-31 renal

## Fc1cnccc1-c1nc2ccc3[nH]ncc3c2c2c1CCCC2
[1]
  GI50: 1670 nM
  TGI: 5230 nM
[2]
  GI50: 700 nM
  TGI: 2960 nM
[3]
  GI50: 1250 nM
  TGI: > 100000 nM
[4]
  GI50: 466 nM
  TGI: > 100000 nM
[5]
  GI50: 1280 nM
  TGI: 7740 nM
[6]
  GI50: 1840 nM
  TGI: > 100000 nM
[7]
  GI50: 1670 nM
  TGI: 43300 nM
[8]
  GI50: 442 nM
  TGI: 13000 nM
[9]
  GI50: 3200 nM
  TGI: > 100000 nM
[10]
  GI50: 489 nM
  TGI: 5030 nM
[11]
  GI50: 844 nM
  TGI: > 100000 nM
[12]
  GI50: 2200 nM
  TGI: 7300 nM
[13]
  GI50: 909 nM
  TGI: 94200 nM
[14]
  GI50: 1620 nM
  TGI: 9970 nM
[15]
  GI50: 661 nM
  TGI: 6700 nM
[16]
  GI50: 2490 nM
  TGI: > 100000 nM
[17]
  GI50: 688 nM
  TGI: 11200 nM
[18]
  GI50: 2630 nM
  TGI: > 100000 nM
[19]
  GI50: 605 nM
  TGI: > 100000 nM
[20]
  GI50: 1580 nM
  TGI: 12600 nM
[21]
  GI50: 1580 nM
  TGI: > 100000 nM
[22]
  GI50: 2760 nM
  TGI: 9060 nM
[23]
  GI50: 1930 nM
  TGI: 12100 nM
[24]
  GI50: 2300 nM
  TGI: > 100000 nM
[25]
  GI50: 1250 nM
  TGI: > 100000 nM
[26]
  GI50: 2710 nM
  TGI: > 100000 nM
[27]
  GI50: 2220 nM
  TGI: 59900 nM
[28]
  GI50: 1410 nM
  TGI: 7740 nM
[29]
  GI50: 1310 nM
  TGI: 8760 nM
[30]
  GI50: 2410 nM
  TGI: > 100000 nM
[31]
  GI50: 2460 nM
  TGI: 10900 nM
[32]
  GI50: 3500 nM
  TGI: > 100000 nM
[33]
  GI50: 3160 nM
  TGI: > 100000 nM
[34]
  GI50: 2100 nM
  TGI: > 100000 nM
[35]
  GI50: 2130 nM
  TGI: > 100000 nM
[36]
  GI50: 1200 nM
  TGI: 6330 nM
[37]
  GI50: 612 nM
  TGI: 3290 nM
[38]
  GI50: 1990 nM
  TGI: 9820 nM
[39]
  GI50: 2530 nM
  TGI: > 100000 nM
[40]
  GI50: 1290 nM
  TGI: 4540 nM
[41]
  GI50: 2350 nM
  TGI: > 100000 nM
[42]
  GI50: 342 nM
  TGI: 3660 nM
[43]
  GI50: 2140 nM
  TGI: > 100000 nM
[44]
  GI50: 2890 nM
  TGI: > 100000 nM
[45]
  GI50: 1410 nM
  TGI: 5540 nM
[46]
  GI50: 519 nM
  TGI: 5080 nM
[47]
  GI50: 1510 nM
  TGI: 9010 nM
[48]
  GI50: 605 nM
  TGI: > 100000 nM
[49]
  GI50: 1960 nM
  TGI: > 100000 nM
[50]
  GI50: 5480 nM
  TGI: > 100000 nM
[51]
  GI50: 1440 nM
  TGI: 5750 nM
[52]
  GI50: 1910 nM
  TGI: 8040 nM
